Test results taken from ChEMBL document CHEMBL5505979, “Novel aminothiazoximone-corbelled ethoxycarbonylpyrimidones with antibiofilm activity to conquer Gram-negative bacteria through potential multitargeting effects” (Eur J Med Chem, 2024).
≈ marks a conversion by molar mass, not a printed value.

Assays:
Format in all cases: functional
Pseudomonas aeruginosa [1] = experiment: Anti-bacterial activity against Pseudomonas aeruginosa ATCC 15442 assessed as inhibition of bacterial growth; conditions: Pseudomonas aeruginosa, ATCC 15442; read-out: MIC
Pseudomonas aeruginosa [2] = experiment: Anti-bacterial activity against Pseudomonas aeruginosa ST235 assessed as inhibition of bacterial growth; conditions: Pseudomonas aeruginosa, ST235; read-out: MIC
Staphylococcus aureus [3] = experiment: Anti-bacterial activity against Staphylococcus aureus ATCC 12600 assessed as inhibition of bacterial growth; conditions: Staphylococcus aureus, ATCC 12600; read-out: MIC
Staphylococcus aureus [4] = experiment: Anti-bacterial activity against Staphylococcus aureus CMCC (B) 26003 assessed as inhibition of bacterial growth
Pseudomonas aeruginosa [5] = experiment: Anti-bacterial activity against Pseudomonas aeruginosa ATCC 27853 assessed as inhibition of bacterial growth; conditions: Pseudomonas aeruginosa, ATCC 27853; read-out: MIC
Candida parapsilosis = experiment: Anti-fungal activity against Candida parapsilosis assessed as inhibition of fungal growth; conditions: Lodderomyces parapsilosis; read-out: MIC
Staphylococcus aureus [6] = experiment: Anti-bacterial activity against Staphylococcus aureus CMCC (B) 26001 assessed as inhibition of bacterial growth
Candida albicans [7] = experiment: Anti-fungal activity against Candida albicans 90023 assessed as inhibition of fungal growth
Staphylococcus aureus [8] = experiment: Anti-bacterial activity against Staphylococcus aureus ATCC 1708 assessed as inhibition of bacterial growth; conditions: Staphylococcus aureus, ATCC 1708; read-out: MIC
Staphylococcus aureus [9] = experiment: Anti-bacterial activity against Staphylococcus aureus ATCC 6538 assessed as inhibition of bacterial growth
Staphylococcus aureus [10] = experiment: Anti-bacterial activity against methicillin-resistant Staphylococcus aureus ATCC 43300 assessed as inhibition of bacterial growth; conditions: Staphylococcus aureus, ATCC 43300; read-out: MIC
Acinetobacter baumannii = experiment: Anti-bacterial activity against Acinetobacter baumannii R674 assessed as inhibition of bacterial growth
Staphylococcus aureus [11] = experiment: Anti-bacterial activity against Staphylococcus aureus ATCC 29213 assessed as inhibition of bacterial growth; conditions: Staphylococcus aureus, ATCC 29213; read-out: MIC
Escherichia coli [12] = experiment: Anti-bacterial activity against Escherichia coli JM109 assessed as inhibition of bacterial growth
Staphylococcus aureus [13] = experiment: Anti-bacterial activity against methicillin-resistant Staphylococcus aureus N315 assessed as inhibition of bacterial growth; conditions: Staphylococcus aureus, N315; read-out: MIC
Escherichia coli [14] = experiment: Anti-bacterial activity against Escherichia coli ATCC 25922 assessed as inhibition of bacterial growth
Enterococcus faecalis = experiment: Anti-bacterial activity against Enterococcus faecalis V583 assessed as inhibition of bacterial growth
Pseudomonas aeruginosa [15] = experiment: Anti-bacterial activity against Pseudomonas aeruginosa CMCC (B) 10104 assessed as inhibition of bacterial growth; conditions: Pseudomonas aeruginosa, CMCC (B) 10104; read-out: MIC
Pseudomonas aeruginosa [16] = experiment: Anti-bacterial activity against Pseudomonas aeruginosa ATCC 9027 assessed as inhibition of bacterial growth
Candida albicans [17] = experiment: Anti-fungal activity against Candida albicans assessed as inhibition of fungal growth; conditions: Candida albicans; read-out: MIC
Klebsiella pneumoniae = experiment: Anti-bacterial activity against Klebsiella pneumoniae KPN325 assessed as inhibition of bacterial growth; conditions: Klebsiella pneumoniae, KPN325; read-out: MIC
Staphylococcus aureus [18] = experiment: Anti-bacterial activity against Staphylococcus aureus ATCC 25923 assessed as inhibition of bacterial growth; conditions: Staphylococcus aureus, ATCC 25923; read-out: MIC
Candida tropicalis = experiment: Anti-fungal activity against Candida tropicalis assessed as inhibition of fungal growth; conditions: Candida tropicalis; read-out: MIC

Compound | MIC (Pseudomonas aeruginosa [1]) | MIC (Pseudomonas aeruginosa [2]) | MIC (Staphylococcus aureus [3]) | MIC (Staphylococcus aureus [4]) | MIC (Pseudomonas aeruginosa [5]) | MIC (Candida parapsilosis) | MIC (Staphylococcus aureus [6]) | MIC (Candida albicans [7]) | MIC (Staphylococcus aureus [8]) | MIC (Staphylococcus aureus [9]) | MIC (Staphylococcus aureus [10]) | MIC (Acinetobacter baumannii) | MIC (Staphylococcus aureus [11]) | MIC (Escherichia coli [12]) | MIC (Staphylococcus aureus [13]) | MIC (Escherichia coli [14]) | MIC (Enterococcus faecalis) | MIC (Pseudomonas aeruginosa [15]) | MIC (Pseudomonas aeruginosa [16]) | MIC (Candida albicans [17]) | other results
CCOC(=O)C1=C(CN2CCN(C(=O)/C(=N/OC)c3csc(N)n3)CC2)NC(=O)NC1c1ccc(N(C)C)cc1 (stereo not given) | 225 µM (≈ 128 µg/mL) | 225 µM (≈ 128 µg/mL) | 225 µM (≈ 128 µg/mL) | 225 µM (≈ 128 µg/mL) | 225 µM (≈ 128 µg/mL) | 412 µM (≈ 235 µg/mL) | 449 µM (≈ 256 µg/mL) | 52 µM (≈ 29.7 µg/mL) | 112 µM (≈ 63.9 µg/mL) | 28 µM (≈ 16 µg/mL) | 56 µM (≈ 32 µg/mL) | 56 µM (≈ 32 µg/mL) | 225 µM (≈ 128 µg/mL) | 112 µM (≈ 63.9 µg/mL) | 449 µM (≈ 256 µg/mL) | 225 µM (≈ 128 µg/mL) | 28 µM (≈ 16 µg/mL) | 225 µM (≈ 128 µg/mL) | 225 µM (≈ 128 µg/mL) | 412 µM (≈ 235 µg/mL) | MIC (Klebsiella pneumoniae): 225 µM (≈ 128 µg/mL); MIC (Staphylococcus aureus [18]): 112 µM (≈ 63.9 µg/mL); MIC (Candida tropicalis): 412 µM (≈ 235 µg/mL)
CCOC(=O)C1=C(CN2CCN(C(=O)/C(=N/OC)c3csc(N)n3)CC2)NC(=O)NC1c1ccc(F)cc1 (stereo not given) | 59 µM (≈ 32.2 µg/mL) | 117 µM (≈ 63.8 µg/mL) | 59 µM (≈ 32.2 µg/mL) | 235 µM (≈ 128 µg/mL) | 117 µM (≈ 63.8 µg/mL) | 447 µM (≈ 244 µg/mL) | 59 µM (≈ 32.2 µg/mL) | 6 µM (≈ 3.27 µg/mL) | 117 µM (≈ 63.8 µg/mL) | 117 µM (≈ 63.8 µg/mL) | 59 µM (≈ 32.2 µg/mL) | 59 µM (≈ 32.2 µg/mL) | 59 µM (≈ 32.2 µg/mL) | 117 µM (≈ 63.8 µg/mL) | 117 µM (≈ 63.8 µg/mL) | 59 µM (≈ 32.2 µg/mL) | 29 µM (≈ 15.8 µg/mL) | 117 µM (≈ 63.8 µg/mL) | 117 µM (≈ 63.8 µg/mL) | 447 µM (≈ 244 µg/mL) | MIC (Klebsiella pneumoniae): 117 µM (≈ 63.8 µg/mL); MIC (Staphylococcus aureus [18]): 59 µM (≈ 32.2 µg/mL); MIC (Candida tropicalis): 447 µM (≈ 244 µg/mL)
CCCCc1nc(Cl)c(C2NC(=O)NC(CN3CCN(CC(=O)c4ccc(Cl)cc4)CC3)=C2C(=O)OCC)[nH]1 (stereo not given) | 111 µM (≈ 64.1 µg/mL) | 111 µM (≈ 64.1 µg/mL) | 56 µM (≈ 32.3 µg/mL) | 56 µM (≈ 32.3 µg/mL) | 111 µM (≈ 64.1 µg/mL) | 444 µM (≈ 256 µg/mL) | 28 µM (≈ 16.2 µg/mL) | 14 µM (≈ 8.09 µg/mL) | 444 µM (≈ 256 µg/mL) | 444 µM (≈ 256 µg/mL) | 56 µM (≈ 32.3 µg/mL) | 111 µM (≈ 64.1 µg/mL) | 56 µM (≈ 32.3 µg/mL) | 222 µM (≈ 128 µg/mL) | 222 µM (≈ 128 µg/mL) | 111 µM (≈ 64.1 µg/mL) | 222 µM (≈ 128 µg/mL) | 56 µM (≈ 32.3 µg/mL) | 28 µM (≈ 16.2 µg/mL) | 444 µM (≈ 256 µg/mL) | MIC (Klebsiella pneumoniae): 222 µM (≈ 128 µg/mL); MIC (Staphylococcus aureus [18]): 222 µM (≈ 128 µg/mL); MIC (Candida tropicalis): 444 µM (≈ 256 µg/mL)
CCOC(=O)C1=C(CN2CCN(C(=O)/C(=N/OC)c3csc(N)n3)CC2)NC(=O)NC1c1ccc(F)cc1F (stereo not given) | 28 µM (≈ 15.8 µg/mL) | 57 µM (≈ 32.1 µg/mL) | 57 µM (≈ 32.1 µg/mL) | 114 µM (≈ 64.2 µg/mL) | 57 µM (≈ 32.1 µg/mL) | 464 µM (≈ 262 µg/mL) | 57 µM (≈ 32.1 µg/mL) | 15 µM (≈ 8.45 µg/mL) | 57 µM (≈ 32.1 µg/mL) | 57 µM (≈ 32.1 µg/mL) | 28 µM (≈ 15.8 µg/mL) | 57 µM (≈ 32.1 µg/mL) | 57 µM (≈ 32.1 µg/mL) | 114 µM (≈ 64.2 µg/mL) | 114 µM (≈ 64.2 µg/mL) | 57 µM (≈ 32.1 µg/mL) | 28 µM (≈ 15.8 µg/mL) | 114 µM (≈ 64.2 µg/mL) | 114 µM (≈ 64.2 µg/mL) | 464 µM (≈ 262 µg/mL) | MIC (Klebsiella pneumoniae): 114 µM (≈ 64.2 µg/mL); MIC (Staphylococcus aureus [18]): 28 µM (≈ 15.8 µg/mL); MIC (Candida tropicalis): 464 µM (≈ 262 µg/mL)
CCOC(=O)C1=C(CN2CCN(C(=O)/C(=N/OC)c3csc(N)n3)CC2)NC(=O)NC1c1cccc(O)c1 (stereo not given) | 59 µM (≈ 32.1 µg/mL) | 59 µM (≈ 32.1 µg/mL) | 15 µM (≈ 8.15 µg/mL) | 236 µM (≈ 128 µg/mL) | 59 µM (≈ 32.1 µg/mL) | 430 µM (≈ 234 µg/mL) | 59 µM (≈ 32.1 µg/mL) | 7 µM (≈ 3.81 µg/mL) | 118 µM (≈ 64.1 µg/mL) | 59 µM (≈ 32.1 µg/mL) | 59 µM (≈ 32.1 µg/mL) | 15 µM (≈ 8.15 µg/mL) | 59 µM (≈ 32.1 µg/mL) | 59 µM (≈ 32.1 µg/mL) | 118 µM (≈ 64.1 µg/mL) | 59 µM (≈ 32.1 µg/mL) | 15 µM (≈ 8.15 µg/mL) | 117 µM (≈ 63.6 µg/mL) | 59 µM (≈ 32.1 µg/mL) | 430 µM (≈ 234 µg/mL) | MIC (Klebsiella pneumoniae): 59 µM (≈ 32.1 µg/mL); MIC (Staphylococcus aureus [18]): 118 µM (≈ 64.1 µg/mL); MIC (Candida tropicalis): 430 µM (≈ 234 µg/mL)
